From ChEMBL document CHEMBL5149962, “Targeting KRAS mutant cancers by preventing signaling transduction in the MAPK pathway” (Eur J Med Chem, 2021)
pEC50, pIC50, pKd, pKi: −log10 of the molar value. Where a SMILES comes first, the peptide text is derived from it. Bridges are numbered along the chain shown (N, C = ends). [ ]: non-standard residue; d: D form. S5 = C=CCCC[C@](C)(N)C(=O)O

Columns and labels:
GTPase KRas [1] = molecular target: T1, GTPase KRas (Homo sapiens, UniProt P01116, G12V); assay: Binding affinity to GDP-bound KRAS G12V RAS mutant (unknown origin)
GTPase HRas [2] = molecular target: T2, GTPase HRas (Homo sapiens, UniProt P01112); assay: Inhibition of human p21 h-RAS assessed as reduction in C-Cdc25 stimulated nucleotide exchange by luminescence spectrometer based analysis
GTPase KRas [3] = molecular target: GTPase KRas (Homo sapiens, UniProt P01116); assay: Binding affinity to KRAS (unknown origin) assessed as dissociation constant
[4] = Binding affinity to human FPTase assessed as inhibition constant
[5] = Lipophilicity, logP of the compound; type: physicochemical; conditions: octanol/water
HCT-116 [6] = assay: Antiproliferative activity against human HCT-116 cells harboring KRAS G13D mutant assessed as cell growth inhibition measured after 96 hrs by MTT assay; type: functional
[7] = Inhibition of human N-terminal His-tagged recombinant wild-type KRAS (1 to 156 residues) expressed in Escherichia coli BL21 (DE3)/SAH-SOS1A by fluorescence based polarization assay
[8] = molecular target: Protein farnesyltransferase subunit beta (Homo sapiens, UniProt P49356); assay: Displacement of M [3H] farnesyl diphosphate from human PFTase expressed in Escherichia coli
[9] = Inhibition of GDP-tagged human RAS (1 to 166 residue) incubated for 20 mins by using Centricon-10 micro concentrators analysis
GTPase KRas [10] = molecular target: GTPase KRas (Homo sapiens, UniProt P01116, G12C); assay: Inhibition of KRAS G12C mutant (unknown origin)
GTPase KRas [11] = molecular target: T1, GTPase KRas; assay: Inhibition of KRAS G12V mutant (unknown origin) expressed in mouse NIH3T3 cells assessed as inhibition of post-translational modification processing; type: cell-based
[12] = Inhibition of HRAS […] mutant (unknown origin) expressed in mouse NIH3T3 cells assessed as inhibition of post-translational modification processing; type: cell-based, Homo sapiens
HT-1080 = assay: Antitumor activity against human HT-1080 cells xenografted in BALB/c nude mouse assessed as reduction in tumor size at 100 mg/kg measured twice a week for 21 days relative to control; type: functional; design: scale not given: the % may be the effect or the level left; conditions: time 21 day
HCT-116 [13] = assay: Antitumor activity against human HCT-116 cells xenografted in BALB/c nude mouse assessed as reduction in tumor size at 100 mg/kg measured twice a week for 21 days relative to control; type: functional; design: scale not given: the % may be the effect or the level left; conditions: time 21 day
MDA-MB-231 = assay: Antiproliferative activity against human MDA-MB-231 cells harboring HRAS mutant incubated for 48 hrs by MTT assay; type: functional, cell-based; conditions: MDA-MB-231, 48 h
[14] = Antiproliferative activity against human Hs578Bst cells harboring HRAS mutant incubated for 48 hrs by MTT assay; type: functional, cell-based
[15] = Induction of apoptosis in human U266B cells harboring wild type RAS mutant assessed as reduction in cell viability measured after 48 hrs by Annexin V-FITC staining based flow cytometry analysis; type: functional
RPMI-8226 = assay: Induction of apoptosis in human RPMI-8226 cells harboring KRAS mutant assessed as reduction in cell viability measured after 48 hrs by Annexin V-FITC staining based flow cytometry analysis; type: functional; conditions: RPMI-8226, 48 h
NCI-H929 = assay: Induction of apoptosis in human NCI-H929 cells harboring NRAS mutant assessed as reduction in cell viability measured after 48 hrs by Annexin V-FITC staining based flow cytometry analysis; type: functional
MCF-10A = assay: Antiproliferative activity against human MCF-10A cells harboring HRAS mutant incubated for 48 hrs by MTT assay; type: functional, cell-based
SW480 = assay: Antiproliferative activity against human SW480 cells assessed as cell growth inhibition by CCK-8 assay relative to control; type: functional
[16] = Binding affinity to recombinant human KRAS (1 to 169 residues) expressed in Escherichia coli - recombinant human SOS1 (560 to 1049 residues) expressed in Escherichia coli assessed as dissociation constant
HT-29 [17] = assay: Cytotoxicity against human HT-29 cells assessed as cell growth inhibition after 72 hrs in presence of doxorubicin by MTT assay; type: functional, cell-based; conditions: HT-29, 72 h
A549 [18] = assay: Cytotoxicity against human A549 cells assessed as cell growth inhibition after 72 hrs by MTT assay; type: functional, cell-based; conditions: A549, 72 h
GTPase HRas [19] = molecular target: T2, GTPase HRas; assay: Binding affinity to HRAS (unknown origin) assessed as inhibition constant
[20] = Antiproliferative activity against human cancer cell lines harboring KRAS mutation assessed as reduction in cell viability; type: functional, cell-based
A549 [21] = assay: Cytotoxicity against human A549 cells assessed as cell growth inhibition after 72 hrs in presence of doxorubicin by MTT assay; type: functional, cell-based; conditions: A549, 72 h
GTPase NRas = GTPase NRas (Homo sapiens, UniProt P01111); assay: Binding affinity to NRAS (unknown origin) assessed as inhibition constant
[22] = Antiproliferative activity against human cancer cell lines harboring wild type RAS mutation assessed as reduction in cell viability; type: functional, cell-based
HT-29 [23] = assay: Cytotoxicity against human HT-29 cells assessed as cell growth inhibition after 72 hrs by MTT assay; type: functional, cell-based; conditions: HT-29, 72 h
[24] = Cmax in cynomolgus monkey; type: ADME, Macaca fascicularis; conditions: in vivo
[25] = AUC in cynomolgus monkey; type: ADME, Macaca fascicularis; conditions: in vivo
HT1197 = assay: Antiproliferative activity against human HT1197 cells harboring HRAS 61 mutation assessed as inhibition of cell growth incubated for 4 to 7 days; type: functional, cell-based
NCI-H441 = assay: Antiproliferative activity against human NCI-H441 cells harboring KRAS 12 mutation assessed as inhibition of cell growth incubated for 4 to 7 days; type: functional, cell-based
[26] = Competitive inhibition of human FPTase using K-RasB peptide as a substrate assessed as inhibition constant by Scintillation proximity assay
Capan-2 = assay: Antiproliferative activity against human Capan-2 cells harboring KRAS 12 mutation assessed as inhibition of cell growth incubated for 4 to 7 days; type: functional, cell-based
[27] = Inhibition of human FPTase using K-RasB peptide as a substrate assessed as inhibition of substrate farnesylation
SU.86.86 = assay: Antiproliferative activity against human SU-86-86 cells harboring KRAS 12 mutation assessed as inhibition of cell growth incubated for 4 to 7 days; type: functional, cell-based

T1 sequence (P01116 whole entry G12V): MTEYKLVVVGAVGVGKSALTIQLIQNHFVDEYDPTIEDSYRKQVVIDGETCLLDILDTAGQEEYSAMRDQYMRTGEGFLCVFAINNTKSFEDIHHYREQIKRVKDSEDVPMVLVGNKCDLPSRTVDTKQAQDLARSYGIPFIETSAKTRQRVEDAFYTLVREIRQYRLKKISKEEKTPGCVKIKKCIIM
T2 sequence (P01112 whole entry): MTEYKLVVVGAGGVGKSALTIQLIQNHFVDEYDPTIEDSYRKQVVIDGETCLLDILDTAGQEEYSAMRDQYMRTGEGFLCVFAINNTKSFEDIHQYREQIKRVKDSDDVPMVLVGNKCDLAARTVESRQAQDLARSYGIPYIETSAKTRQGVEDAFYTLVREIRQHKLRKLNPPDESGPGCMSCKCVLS
Sequence of GTPase KRas (Homo sapiens, UniProt P01116) (P01116 whole entry): as the sequence (P01116 whole entry G12V) above, with V12G counted along it
Sequence of Protein farnesyltransferase subunit beta (P49356 whole entry): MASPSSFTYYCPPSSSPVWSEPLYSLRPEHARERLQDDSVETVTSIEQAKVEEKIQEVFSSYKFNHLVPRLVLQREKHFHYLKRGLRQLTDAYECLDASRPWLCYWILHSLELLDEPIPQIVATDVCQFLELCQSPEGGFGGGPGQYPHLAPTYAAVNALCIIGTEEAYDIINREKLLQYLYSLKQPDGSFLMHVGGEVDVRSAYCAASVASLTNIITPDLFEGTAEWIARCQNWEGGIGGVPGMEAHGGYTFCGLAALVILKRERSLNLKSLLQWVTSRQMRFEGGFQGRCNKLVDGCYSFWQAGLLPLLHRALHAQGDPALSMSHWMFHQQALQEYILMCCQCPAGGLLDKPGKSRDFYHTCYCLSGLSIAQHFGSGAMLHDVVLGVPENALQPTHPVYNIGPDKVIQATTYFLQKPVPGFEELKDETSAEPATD
Sequence of GTPase KRas (Homo sapiens, UniProt P01116, G12C) (P01116 whole entry G12C): as the sequence (P01116 whole entry G12V) above, with V12C counted along it
Sequence of GTPase NRas (P01111 whole entry): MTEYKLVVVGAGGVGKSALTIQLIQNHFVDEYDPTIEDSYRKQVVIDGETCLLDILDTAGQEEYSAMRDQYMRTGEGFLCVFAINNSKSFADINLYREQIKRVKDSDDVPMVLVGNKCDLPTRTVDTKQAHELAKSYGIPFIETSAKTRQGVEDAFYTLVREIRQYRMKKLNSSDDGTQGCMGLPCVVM

## O=S(=O)(c1ccc(NO)cc1)N(CCOc1ccc2ccccc2c1)[C@@H]1O[C@H](CO)[C@@H](O)[C@H](O)[C@H]1O
GTPase KRas [1]
  pIC50: 6.15

## O=S(=O)(NCCOc1ccc2ccccc2c1)c1ccc(NO)cc1
GTPase KRas [1]
  pIC50: 6.30
GTPase HRas [2]
  pIC50: 4.25

## Cc1[nH]c2cc(Cl)cc(Cl)c2c1CCN
GTPase KRas [3]
  pKd: 2.96

## CC(C)=CCC/C(C)=C/CC/C(C)=C/C(O)P(=O)(O)O (stereo not given)
[4]
  pKi: 8.28

## C=C1CC[C@@H]2[C@]3(C)COC(c4cccc(Br)c4)O[C@@H]3CC[C@@]2(C)[C@@H]1C/C=C1/C(=O)OC[C@H]1O (stereo not given in full)
[5]
  logP: 2.6

## C=C1CC[C@@H]2[C@]3(C)COC(c4ccc(F)c(Br)c4)O[C@@H]3CC[C@@]2(C)[C@@H]1C/C=C1/C(=O)OC[C@H]1O (stereo not given in full)
HCT-116 [6]
  GI50: 4 µM
[5]
  logP: 2.6

## CC[C@H](C)[C@H](NC(=O)CNC(=O)[C@H](Cc1ccccc1)NC(=O)[C@@H](N)Cc1ccccc1)C(=O)N[C@@H](Cc1ccc(O)cc1)C(=O)N[C@@H](CC(C)C)C(=O)N[C@H](C(=O)N[C@@H](CC(N)=O)C(=O)N[C@@]1(C)CCC/C=C\CCC[C@@](C)(C(=O)N[C@@H](CCC(=O)O)C(=O)NCC(=O)N[C@@H](CC(N)=O)C(=O)O)NC(=O)[C@H]([C@@H](C)O)NC(=O)[C@H](CCCCN)NC(=O)[C@H](CC(C)C)NC1=O)[C@@H](C)O
[7]
  pEC50: 7.00

## CC[C@@H](C)[C@@H](CO[C@@H](Cc1ccccc1)C(=O)CC(CCS(C)(=O)=O)C(=O)O)NC[C@@H](N)CS (stereo not given in full)
[8]
  pIC50: 8.74

## O=S(=O)(c1ccc(NO)cc1)N1CCC(=C2c3cc(Cl)ccc3CCc3cccnc32)CC1
[9]
  pIC50: 6.05

## Nc1nc2c(ncn2CCN(CCOc2ccc3ccccc3c2)S(=O)(=O)c2ccc(NO)cc2)c(=O)[nH]1
GTPase KRas [1]
  pIC50: 6.30

## C=CC(=O)N1CCN(c2nc(NCCC(=O)N(C)C)nc3c(F)c(-c4cc(O)cc5ccccc45)c(Cl)cc23)CC1
GTPase KRas [10]
  pIC50: 6.14

## C=C1CC[C@@H]2[C@]3(C)COC(c4ccccc4Br)O[C@@H]3CC[C@@]2(C)[C@@H]1C/C=C1/C(=O)OC[C@H]1O (stereo not given in full)
HCT-116 [6]
  GI50: 3.1 µM
[5]
  logP: 2.6

## CSCC[C@H](CC(=O)[C@H](/C=C\[C@@H](/C=C/[C@@H](N)CS)C(C)C)Cc1ccccc1)C(=O)O
GTPase KRas [11]
  pIC50: 4.60
[12]
  pIC50: 6.30

## COC(=O)[C@H](CCSC)CC(=O)[C@H](/C=C\[C@@H](/C=C/[C@@H](N)CS)C(C)C)Cc1ccccc1
HT-1080
  Activity: 40%
HCT-116 [13]
  Activity: 20%

## COC(=O)[C@H](CCSC)NC(=O)c1ccc(NC[C@H](N)CS)cc1-c1ccccc1
MDA-MB-231
  pIC50: 4.53
[14]
  pIC50: 4.83
[15]
  pIC50: 4.60
RPMI-8226
  pIC50: 4.38
NCI-H929
  IC50: 12.7 µM
MCF-10A
  pIC50: 5.17

## CC[C@H](C)[C@H](NC(=O)CNC(=O)[C@H](Cc1ccccc1)NC(=O)[C@@H](N)Cc1ccccc1)C(=O)N[C@@]1(C)CCC/C=C\CCC[C@@](C)(C(=O)N[C@@H](CC(C)C)C(=O)N[C@@H](CCCCN)C(=O)N[C@H](C(=O)N[C@@H](CCC(=O)O)C(=O)N[C@@H](CCC(=O)O)C(=O)NCC(=O)N[C@@H](CC(N)=O)C(=O)O)[C@@H](C)O)NC(=O)[C@H](CC(N)=O)NC(=O)[C@H]([C@@H](C)O)NC(=O)[C@H](CC(C)C)NC1=O
[7]
  pEC50: 7.00

## [O-][S+](NC[C@@H]1CC2O[C@H](OCc3ccccc3)[C@@H](OCc3ccccc3)C2O1)c1ccc(NO)cc1 (stereo not given in full)
GTPase HRas [2]
  pIC50: 4.45

## CC[C@H](C)[C@H](NC(=O)[C@]1(C)CCC/C=C\CCC[C@](C)(NC(=O)CNC(=O)[C@H](Cc2ccccc2)NC(=O)[C@@H](N)Cc2ccccc2)C(=O)N[C@@H](Cc2ccc(O)cc2)C(=O)N[C@@H](CC(C)C)C(=O)N[C@@H]([C@@H](C)O)C(=O)N1)C(=O)N[C@@H](CC(C)C)C(=O)N[C@@H](CCCCN)C(=O)N[C@H](C(=O)N[C@@H](CCC(=O)O)C(=O)N[C@@H](CCC(=O)O)C(=O)NCC(=O)N[C@@H](CC(N)=O)C(=O)O)[C@@H](C)O
[7]
  pEC50: 7.00

## Cc1ccc(NC(=S)NNc2c([N+](=O)[O-])cc(C(F)(F)F)cc2[N+](=O)[O-])cc1Cl
SW480
  inhibition (INH): 66.3%

## CC[C@H](C)[C@@H]1NC(=O)CNC(=O)[C@@](C)(NC(=O)[C@@H](N)Cc2ccccc2)CCC/C=C\CCC[C@@](C)(C(=O)N[C@H](C(=O)N[C@@H](C)C(=O)N[C@H](C(=O)N[C@@H](CC(C)C)C(=O)N[C@@H](CCCCN)C(=O)N[C@H](C(=O)N[C@@H](CCC(=O)O)C(=O)N[C@@H](CCC(=O)O)C(=O)NCC(=O)N[C@@H](CC(N)=O)C(=O)O)[C@@H](C)O)[C@@H](C)CC)[C@@H](C)O)NC(=O)[C@H](Cc2ccc(O)cc2)NC1=O (H-F[S5]GIY[S5]TAILKTEEGN-OH; staple (Z) 2-6)
[7]
  pEC50: 7.00

## C=C1CC[C@@H]2[C@](C)(CO)[C@H](O)CC[C@@]2(C)[C@@H]1C/C=C1/C(=O)OC[C@H]1O [ANDROGRAPHOLIDE]
HCT-116 [6]
  GI50: 4.5 µM

## CNCc1ccccc1-c1csc([C@@H](C)Nc2nc(C)nc3cc(OC)c(OC)cc23)c1 [BAY-293]
[16]
  pKd: 7.44

## c1ccc2[nH]cnc2c1 [BENZIMIDAZOLE]
GTPase KRas [3]
  pKd: 2.82

## N#Cc1ccc(Cn2cncc2CN2CCN(c3cccc(Cl)c3)C(=O)C2)cc1 [L-778123 FREE BASE]
HT-29 [17]
  pIC50: 5.82
A549 [18]
  pIC50: 4.00
GTPase HRas [19]
  pKi: 8.80
[20]
  pIC50: 5.64
A549 [21]
  pIC50: 5.76
GTPase NRas
  pKi: 9.52
[22]
  pIC50: 7.15
HT-29 [23]
  pIC50: 3.90

## NC(=O)N1CCC(CC(=O)N2CCC([C@H]3c4ncc(Br)cc4CCc4cc(Cl)cc(Br)c43)CC2)CC1 [LONAFARNIB]
[24]
  Cmax: 1900 nM
[25]
  AUC: 14700 ng·h/mL

## CNC(=O)c1cc(Oc2ccc(NC(=O)Nc3ccc(Cl)c(C(F)(F)F)c3)cc2)ccn1 [SORAFENIB]
SW480
  inhibition (INH): 83.8%

## Cn1cncc1[C@@](N)(c1ccc(Cl)cc1)c1ccc2c(c1)c(-c1cccc(Cl)c1)cc(=O)n2C [TIPIFARNIB]
HT1197
  pIC50: 8.77
NCI-H441
  pIC50: 7.44
[26]
  pKi: 9.30
Capan-2
  pIC50: 7.80
[27]
  pIC50: 8.10
SU.86.86
  pIC50: 8.02
